Experimental data taken from the CheMixHub viscosity set.
“And” between values parts separate entries of the source, which are not always exact repeats. Equal entries are not always repeated.

Test: xn = mol fraction of the nth substance listed

ClC(Cl)(Cl)Cl + C1COCCO1
101 kPa
Details	viscosity
298.15 K, x1 = 0.1175	1.203 mPa·s
298.15 K, x1 = 0.219	1.208 mPa·s
298.15 K, x1 = 0.373	1.193 mPa·s
298.15 K, x1 = 0.5081	1.165 mPa·s
298.15 K, x1 = 0.675	1.093 mPa·s
298.15 K, x1 = 0.8092	1.009 mPa·s
298.15 K, x1 = 0.892	0.961 mPa·s
303.15 K, x1 = 0.675	1.007 mPa·s
303.15 K, x1 = 0.8092	0.938 mPa·s
303.15 K, x1 = 0.892	0.896 mPa·s
303.15 K, x2 = 0.0983	0.901 mPa·s
303.15 K, x2 = 0.1116	0.907 mPa·s
303.15 K, x2 = 0.112	0.922 mPa·s
303.15 K, x2 = 0.204	0.957 mPa·s
303.15 K, x2 = 0.2198	0.9914 mPa·s
303.15 K, x2 = 0.22	1.016 mPa·s
303.15 K, x2 = 0.2994	1.011 mPa·s
303.15 K, x2 = 0.4025	1.055 mPa·s
303.15 K, x2 = 0.4985	1.086 mPa·s
303.15 K, x2 = 0.53	1.163 mPa·s
303.15 K, x2 = 0.5302	1.163 mPa·s
303.15 K, x2 = 0.6286	1.164 mPa·s
303.15 K, x2 = 0.629	1.164 mPa·s
303.15 K, x2 = 0.7245	1.161 mPa·s
303.15 K, x2 = 0.725	1.161 mPa·s
303.15 K, x2 = 0.91	1.078 mPa·s and 1.092 mPa·s
308.15 K, x1 = 0.219	1.024 mPa·s
308.15 K, x1 = 0.5081	0.992 mPa·s
308.15 K, x1 = 0.675	0.93 mPa·s
308.15 K, x1 = 0.8092	0.871 mPa·s
308.15 K, x1 = 0.892	0.834 mPa·s
313.15 K, x1 = 0.1175	0.95 mPa·s
313.15 K, x1 = 0.219	0.945 mPa·s
313.15 K, x1 = 0.373	0.934 mPa·s
313.15 K, x1 = 0.5081	0.92 mPa·s
313.15 K, x1 = 0.675	0.866 mPa·s
313.15 K, x1 = 0.8092	0.81 mPa·s
313.15 K, x1 = 0.892	0.778 mPa·s
318.15 K, x1 = 0.1175	0.882 mPa·s
318.15 K, x1 = 0.219	0.876 mPa·s
318.15 K, x1 = 0.373	0.865 mPa·s
318.15 K, x1 = 0.5081	0.85 mPa·s
318.15 K, x1 = 0.675	0.806 mPa·s
318.15 K, x1 = 0.8092	0.757 mPa·s
318.15 K, x1 = 0.892	0.73 mPa·s

ClC(Cl)(Cl)Cl + C=C(C)C(=O)OC
303.15 K, 101 kPa
Details	viscosity [mPa·s]
x2 = 0.0997	0.7954
x2 = 0.1978	0.753
x2 = 0.4056	0.6767
x2 = 0.5067	0.641
x2 = 0.5941	0.6167
x2 = 0.7976	0.5599
x2 = 0.8944	0.536

ClC(Cl)(Cl)Cl + CC#N
viscosity [mPa·s], 101 kPa
Details	293.15 K	298.15 K	303.15 K	313.15 K	323.15 K
x2 = 0.007	0.954	0.883	0.813	0.74	0.638
x2 = 0.026	0.948	0.855	0.798	0.724	0.612
x2 = 0.084	0.906	0.862	0.831	0.736	0.659

CCCC(C)=O + CC(=O)O
viscosity [mPa·s], 101 kPa
Details	x2 = 0.0997	x2 = 0.1996	x2 = 0.2989	x2 = 0.3983	x2 = 0.5013	x2 = 0.6017	x2 = 0.6987	x2 = 0.8081	x2 = 0.8922
298.15 K	0.5074	0.5482	0.5923	0.6401	0.6986	0.7628	0.839	0.9225	1.011
308.15 K	0.4551	0.4882	0.5246	0.5655	0.6134	0.667	0.727	0.8006	0.878
318.15 K	0.4061	0.4339	0.4639	0.4989	0.5394	0.5838	0.635	0.6961	0.7519

ClC(Cl)(Cl)Cl + CC(=O)O
Details	viscosity [mPa·s]
298.15 K, 101 kPa, x2 = 0.1	0.84
298.15 K, 101 kPa, x2 = 0.22	0.822
298.15 K, 101 kPa, x2 = 0.31	0.811
298.15 K, 101 kPa, x2 = 0.39	0.808
298.15 K, 101 kPa, x2 = 0.63	0.832
298.15 K, 101 kPa, x2 = 0.72	0.863
298.15 K, 101 kPa, x2 = 0.79	0.9
298.15 K, 101 kPa, x2 = 0.91	1.007
298.15 K, 101.33 kPa, x2 = 0.214	0.82
298.15 K, 101.33 kPa, x2 = 0.418	0.804
298.15 K, 101.33 kPa, x2 = 0.608	0.816
298.15 K, 101.33 kPa, x2 = 0.805	0.92
303.15 K, 101 kPa, x1 = 0.0697	1.071
303.15 K, 101 kPa, x1 = 0.2172	0.995
303.15 K, 101 kPa, x1 = 0.7482	0.894
313.15 K, 101 kPa, x1 = 0.0697	0.982
313.15 K, 101 kPa, x1 = 0.2172	0.876
313.15 K, 101 kPa, x1 = 0.7482	0.791
323.15 K, 101 kPa, x1 = 0.0697	0.917
323.15 K, 101 kPa, x1 = 0.2172	0.804
323.15 K, 101 kPa, x1 = 0.7482	0.697
